Target: human P2X3 receptor (Homo sapiens (Human), UniProt P56373)
Experiment: Evaluation of human P2X3 receptor inhibitory activity (Test Example 1)
Format: cell-based
Settings: C6BU-1 cell transfected with human P2X3 receptor gene, FLIPR 384
Procedure, shortened: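 FLIPR calcium read-out: signal taken as peak fluorescence after ATP addition divided by starting fluorescence, and IC50 calculated from it. Compound added 5 min before 150 nM ATP solution (pre-dispense stock) to Fluo-3-AM-loaded C6BU-1 cells stably transfected with human P2X3; HEPES buffer pH 7.5 with probenecid.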

Sequence of human P2X3 receptor (P56373 whole entry): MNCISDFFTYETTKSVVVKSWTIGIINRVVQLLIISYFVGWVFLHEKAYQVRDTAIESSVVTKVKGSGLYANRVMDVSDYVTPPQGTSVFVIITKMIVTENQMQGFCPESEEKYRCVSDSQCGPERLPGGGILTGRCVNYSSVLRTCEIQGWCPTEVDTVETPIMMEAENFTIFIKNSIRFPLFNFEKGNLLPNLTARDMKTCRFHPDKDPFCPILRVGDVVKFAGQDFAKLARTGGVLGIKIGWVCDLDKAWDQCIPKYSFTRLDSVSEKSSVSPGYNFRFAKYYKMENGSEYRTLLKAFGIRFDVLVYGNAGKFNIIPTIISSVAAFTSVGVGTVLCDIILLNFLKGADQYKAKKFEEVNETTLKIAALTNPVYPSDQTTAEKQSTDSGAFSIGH

Structure (SMILES)	IC50 [nM]
COC(=O)Cn1c(=O)[nH]/c(=N\c2ccc(Oc3ccccn3)cc2)n(Cc2ccc(Cl)cc2)c1=O [Compound R-238, 1-(4-chlorobenzyl)-3-(methoxycarbonylmethyl)-6-[4-(2-pyridyloxy)phenylimino]-1,3,5-triazinane-2,4-dione]	7
COC(=O)C(C)(C)Cn1c(=O)[nH]/c(=N\c2ccc(Oc3noc(C)n3)cc2)n(Cc2ccc(Cl)cc2)c1=O [Compound R-113]	13
CCOC(=O)Cn1c(=O)[nH]/c(=N\c2ccc(Oc3ccc(C#N)cn3)cc2)n(Cc2ccc(Cl)cc2)c1=O [Compound R-313]	3
CC(C)Oc1ccc(/N=c2\[nH]c(=O)n(C[C@@H](O)CC(=O)O)c(=O)n2Cc2ccc(Cl)cc2)cc1Cl [Compound R-179]	56
Cc1ccc(Cn2c(=O)n(CCC(=O)O)c(=O)[nH]/c2=N\c2ccc(Oc3ccccn3)c(C)c2)cc1 [Compound R-282]	23
C[C@H](C(=O)O)[C@@H](C)n1c(=O)[nH]/c(=N\c2ccc(Oc3ccccn3)cc2)n(Cc2ccc(Cl)cc2)c1=O [Compound I-152]	6
COC(=O)C[C@@H](C)n1c(=O)[nH]/c(=N\c2ccc(Oc3ncccc3F)cc2)n(Cc2ccc(C)cc2)c1=O [Compound I-188]	7
CC(C)(Cn1c(=O)[nH]/c(=N\c2ccc(Oc3cccc(Cl)n3)cc2)n(Cc2ccc(Cl)cc2)c1=O)C(=O)O [Compound I-015]	9
COC(=O)[C@@H](C)Cn1c(=O)[nH]/c(=N\c2ccc(Oc3ccc(CF)nc3)cc2)n(Cc2ccc(Cl)cc2)c1=O [Compound I-239]	6
COC(=O)C(C)(C)Cn1c(=O)[nH]/c(=N\c2ccc(Oc3cc(C(F)(F)F)ccn3)cc2)n(Cc2ccc(Cl)cc2)c1=O [Compound I-085]	225
C[C@@H](C(=O)O)[C@H](C)n1c(=O)[nH]/c(=N\c2ccc(Oc3cc(F)nc(F)c3)cc2)n(Cc2ccc(Cl)cc2)c1=O [Compound R-157]	6
COC(=O)C(C)(C)Cn1c(=O)[nH]/c(=N\c2ccc(Oc3cc(F)nc(F)c3)cc2)n(Cc2ccc(Cl)cc2)c1=O [Compound R-041]	11
COC(=O)[C@@H](C)Cn1c(=O)[nH]/c(=N\c2ccc(Oc3ccc(C)nn3)c(F)c2)n(Cc2ccc(Cl)cc2)c1=O [Compound R-174]	10
Cc1cc(/N=c2\[nH]c(=O)n(CCC(=O)O)c(=O)n2Cc2ccc(Cl)cc2)ccc1Oc1ccccn1 [Compound R-283]	28
COC(=O)[C@@H](C)Cn1c(=O)[nH]/c(=N\c2ccc(Oc3cc(C(F)(F)F)ccn3)cc2)n(Cc2ccc(Cl)cc2)c1=O [Compound I-082]	112
C[C@@H](C(=O)O)[C@H](C)n1c(=O)[nH]/c(=N\c2ccc(Oc3ccccn3)c(F)c2)n(Cc2ccc(Cl)cc2)c1=O [Compound I-231]	7
Cc1cncc(Oc2ccc(/N=c3\[nH]c(=O)n(C[C@H](C)C(=O)O)c(=O)n3Cc3ccc(Cl)cc3)cc2)c1 [Compound R-185]	12
O=C(O)CCn1c(=O)[nH]/c(=N\c2ccc(Oc3ccccn3)c(Cl)c2)n(Cc2ccc(Cl)cc2)c1=O [Compound R-297]	8
Cc1ccc(Cn2c(=O)n(CCC(=O)O)c(=O)[nH]/c2=N\c2ccc(Oc3ccccn3)c(F)c2)cc1 [Compound R-280]	9
COC(=O)C(C)(C)Cn1c(=O)[nH]/c(=N\c2ccc(Oc3ncc(C)s3)cc2)n(Cc2ccc(Cl)cc2)c1=O [Compound R-149]	12

Structure (SMILES)	IC50 [nM]
CC(C)(Cn1c(=O)[nH]/c(=N\c2ccc(Oc3ccc(C(F)(F)F)nn3)cc2)n(Cc2ccc(Cl)cc2)c1=O)C(=O)O [Compound R-031]	12
Cc1ccc(Cn2c(=O)n([C@H]3C[C@H](C(=O)O)C3)c(=O)[nH]/c2=N\c2ccc(Oc3ccccn3)cc2)cc1 [Compound I-184]	6
C[C@@H](Cn1c(=O)[nH]/c(=N\c2ccc(Oc3nc4ccccc4s3)cc2)n(Cc2ccc(Cl)cc2)c1=O)C(=O)O [Compound R-192]	4
COC(=O)[C@@H](C)Cn1c(=O)[nH]/c(=N\c2ccc(Oc3nc(C)ns3)cc2)n(Cc2ccc(Cl)cc2)c1=O [Compound R-135]	5
C[C@@H](C(=O)O)[C@H](C)n1c(=O)[nH]/c(=N\c2ccc(Oc3cccc(Cl)n3)cc2)n(Cc2ccc(Cl)cc2)c1=O [Compound I-016]	8
O=c1[nH]/c(=N\c2ccc(Oc3ccccn3)cc2)n(Cc2ccc(Cl)cc2)c(=O)n1CCCOC1CCCCO1 (centres unmarked) [Compound R-248]	5
COC(=O)C[C@@H](C)n1c(=O)[nH]/c(=N\c2ccc(Oc3ccc(F)cn3)cc2)n(Cc2ccc(Cl)cc2)c1=O [Compound I-160]	5
O=C(O)c1cccc(-c2ccc(Oc3ccc(/N=c4\[nH]c(=O)[nH]c(=O)n4Cc4ccc(Cl)cc4)cc3)nc2)c1 [Compound R-003]	4
COC(=O)c1cccc(-c2ccc(Oc3ccc(/N=c4\[nH]c(=O)[nH]c(=O)n4Cc4ccc(Cl)cc4)cc3)nc2)c1 [Compound R-002]	363
COc1nccc(Oc2ccc(/N=c3\[nH]c(=O)n([C@@H](C)[C@@H](C)C(=O)O)c(=O)n3Cc3ccc(Cl)cc3)cc2)n1 [Compound R-010]	10
COC(=O)[C@@H](C)Cn1c(=O)[nH]/c(=N\c2ccc(Oc3ccc(CO)nc3)cc2)n(Cc2ccc(Cl)cc2)c1=O [Compound R-152]	5
COC(=O)[C@@H](C)Cn1c(=O)[nH]/c(=N\c2ccc(O[C@H](C)C(F)(F)F)c(F)c2)n(Cc2ccc(Cl)cc2)c1=O [Compound R-090]	70
C[C@@H](Cn1c(=O)[nH]/c(=N\c2ccc(Oc3cnc(C(F)(F)F)cn3)cc2)n(Cc2ccc(Cl)cc2)c1=O)C(=O)O [Compound R-039]	6
COC(=O)CCn1c(=O)[nH]/c(=N\c2ccc(Oc3ncccc3F)cc2)n(Cc2ccc(CF)cc2)c1=O [Compound R-288]	12
CCc1[nH]c2ccc(/N=c3\[nH]c(=O)n([C@@H](C)[C@@H](C)C(=O)OC)c(=O)n3Cc3ccc(Cl)cc3)cc2c1C [Compound R-127]	90
COC(=O)CCn1c(=O)[nH]/c(=N\c2ccc(Oc3ccccn3)cc2)n(Cc2ccc(C)cc2)c1=O [Compound R-226]	3
O=C(O)CCn1c(=O)[nH]/c(=N\c2ccc(Oc3ccc(Cl)cn3)cc2)n(Cc2ccc(Cl)cc2)c1=O [Compound R-284]	5
O=C(O)C1(Cn2c(=O)[nH]/c(=N\c3ccc(Oc4cccc(F)n4)cc3)n(Cc3ccc(Cl)cc3)c2=O)COC1 [Compound I-049]	15
CCOC(=O)[C@H]1C[C@H](n2c(=O)[nH]/c(=N\c3ccc(Oc4ccccn4)cc3)n(Cc3ccc(Cl)cc3)c2=O)C1 [Compound I-170]	15
COC(=O)[C@H](C)[C@H](C)n1c(=O)[nH]/c(=N\c2ccc(Oc3cncc(F)c3)c(C)c2)n(Cc2ccc(Cl)cc2)c1=O [Compound R-186]	26

Structure (SMILES)	IC50 [nM]
COC(=O)[C@@H](C)Cn1c(=O)[nH]/c(=N\c2ccc(Oc3ccccn3)cc2)n(Cc2ccc(C(F)F)cc2)c1=O [Compound I-194]	12
C[C@@H](Cn1c(=O)[nH]/c(=N\c2ccc(Oc3nc4ccccc4o3)cc2)n(Cc2ccc(Cl)cc2)c1=O)C(=O)O [Compound R-144]	5
CC(C)Oc1ccc(/N=c2\[nH]c(=O)n([C@H]3C[C@H](C(=O)O)C3)c(=O)n2Cc2ccc(Cl)cc2)cc1Cl [Compound R-021]	15
O=c1[nH]/c(=N\c2ccc(Oc3ccc(F)cn3)cc2)n(Cc2ccc(Cl)cc2)c(=O)n1[C@H]1C[C@@H](C(=O)O)C1 [Compound I-020]	9
Cc1cncc(Oc2ccc(/N=c3\[nH]c(=O)n(CC(C)(C)C(=O)O)c(=O)n3Cc3ccc(Cl)cc3)cc2)c1 [Compound R-194]	13
COC(=O)[C@@H](C)Cn1c(=O)[nH]/c(=N\c2ccc(Oc3ncc(C)s3)cc2)n(Cc2ccc(C)cc2)c1=O [Compound R-214]	6
COc1ccnc(Oc2ccc(/N=c3\[nH]c(=O)n(C[C@H](C)C(=O)O)c(=O)n3Cc3ccc(Cl)cc3)cc2)c1 [Compound I-069]	7
Cc1ccc(Cn2c(=O)n([C@H]3C[C@@H](C(=O)O)C3)c(=O)[nH]/c2=N\c2ccc(Oc3ccccn3)cc2)cc1 [Compound I-185]	9
Cc1cc(/N=c2\[nH]c(=O)n(C[C@H](C)C(=O)O)c(=O)n2Cc2ccc(Cl)cc2)ccc1N1CCCCC1 [Compound R-142]	69
C[C@@H](Cn1c(=O)[nH]/c(=N\c2ccc(Oc3ncccc3F)cc2)n(Cc2ccc(F)cc2F)c1=O)C(=O)O [Compound I-027]	39
C[C@@H](Cn1c(=O)[nH]/c(=N\c2ccc(Oc3ccc(F)cn3)cc2)n(CC2CC3(CCC3)C2)c1=O)C(=O)O [Compound I-264]	5
O=C(O)CCn1c(=O)[nH]/c(=N\c2ccc(Oc3ccccn3)c(F)c2)n(Cc2ccc(Cl)cc2)c1=O [Compound R-281]	7
Cc1ccc(Cn2c(=O)n(C[C@@H](C)C(=O)O)c(=O)[nH]/c2=N\c2ccc(Oc3ccccn3)cc2)cc1 [Compound I-148]	9
C[C@@H](Cn1c(=O)[nH]/c(=N\c2ccc(Oc3ccncc3)cc2)n(Cc2ccc(Cl)cc2)c1=O)C(=O)O [Compound R-208]	5
COc1nccc(Oc2ccc(/N=c3\[nH]c(=O)n(C[C@H](C)C(=O)O)c(=O)n3Cc3ccc(Cl)cc3)cc2)n1 [Compound R-061]	7
COC(=O)[C@H](C)[C@H](C)n1c(=O)[nH]/c(=N\c2ccc(Oc3cc(Cl)ccn3)cc2)n(Cc2ccc(Cl)cc2)c1=O [Compound I-087]	107
C[C@@H](Cn1c(=O)[nH]/c(=N\c2ccc(Oc3nc(C(F)(F)F)ns3)cc2)n(Cc2ccc(Cl)cc2)c1=O)C(=O)O [Compound R-145]	11
C[C@@H](Cn1c(=O)[nH]/c(=N\c2ccc(Oc3ccc(CO)cn3)cc2)n(Cc2ccc(Cl)cc2)c1=O)C(=O)O [Compound I-084]	8
O=C(O)C1(Cn2c(=O)[nH]/c(=N\c3ccc(Oc4ccccn4)cc3)n(Cc3ccc(Cl)cc3)c2=O)CC1 [Compound I-193]	8
